Assay results: paper PMC7417534, “Cytochrome P450 inhibition potential and initial genotoxic evaluation of 14-O-[(4,6-diaminopyrimidine-2-yl)thioacetyl] mutilin” (Scientific Reports, 2020)
Like-named read-outs stand apart in the source and are kept apart here.

Columns and labels:
CYP2D1 = molecular target: T1, CYP2D1 (Rattus norvegicus, UniProt P10633); assay: Cocktail CYP inhibition in rat liver microsomes, CYP2D1 (metoprolol); format: in vitro ADME; conditions: cocktail method, read-out: IC50 values, CYP2D1 in RLMs
T1 construct: containing 100 μL RLMs or HLMs; tissue Research Institute for Liver Diseases (Shanghai) Co., Ltd; host or cells: male SD rat liver microsomes
T1 sequence (P10633 whole entry): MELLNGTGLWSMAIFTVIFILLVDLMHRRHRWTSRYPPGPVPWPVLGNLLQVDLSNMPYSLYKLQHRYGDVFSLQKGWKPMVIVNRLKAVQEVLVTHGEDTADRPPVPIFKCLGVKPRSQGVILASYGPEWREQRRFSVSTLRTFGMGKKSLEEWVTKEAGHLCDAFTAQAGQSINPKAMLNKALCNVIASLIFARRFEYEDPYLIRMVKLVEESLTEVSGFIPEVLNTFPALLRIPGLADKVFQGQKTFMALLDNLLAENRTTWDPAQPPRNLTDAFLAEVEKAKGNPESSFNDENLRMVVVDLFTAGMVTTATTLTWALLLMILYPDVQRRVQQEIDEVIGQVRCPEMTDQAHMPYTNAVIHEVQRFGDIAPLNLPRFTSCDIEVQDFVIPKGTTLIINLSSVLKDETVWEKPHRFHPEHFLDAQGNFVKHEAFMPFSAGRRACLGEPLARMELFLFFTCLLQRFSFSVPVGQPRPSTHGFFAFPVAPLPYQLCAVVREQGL
Protocol: (§1) We used the cocktail method to study the inhibition activities of DPTM against CYP enzymes in RLMs and HLMs with slight modification. DPTM (250 μmol) was dissolved in 1.25 mL methanol to a solution and then diluted with methanol and water to 2, 10, 20, 100, 200, 400, 1,000 and 2000 μM, respectively. The obtained serial dilutions (10 μL) were added to the incubation mixtures (200 μL total volume), containing 100 μL RLMs or HLMs (final concentration was 5 μg/μL, respectively), 10 μL glucose-6-phosphate (final concentration was 1 mM), 10 μL glucose-6-phosphate dehydrogenase (final concentration was 0.1 U/L), 20 μL potassium phosphate buffer (final concentration was 0.01 M) and 20 μL MgCl2 (final concentration was 2 mM), to give the final concentrations were 0.1, 0.5, 1, 5 10, 20, 50, and 100 μM, respectively. For the groups that in the absence of DPTM, 10 μL methanol (1%) replaced the DPTM and was added to the incubation mixtures. […] The final concentration of methanol in all the incubation mixtures, including the blank group, was […]. […] The determined metabolic substrates were used for calculating the relative enzyme activity (Erel) by the following formula: Erel (%) = Ci(n)/Ci(0) × 100%, in which Ci(n) was the determined metabolic substrates in the presence of varying concentrations of DPTM and Ci(0) was the determined metabolic substrates in the absence of DPTM. […]

CYP3A4 = molecular target: T2, CYP3A4 (Homo sapiens, UniProt P08684); assay: Cocktail CYP inhibition in human liver microsomes, CYP3A4 (dapsone); format: in vitro ADME; conditions: cocktail method, read-out: IC50 values, CYP3A4 in HLMs
T2 construct: containing 100 μL RLMs or HLMs; tissue Research Institute for Liver Diseases (Shanghai) Co., Ltd; host or cells: pooled human liver microsomes
T2 sequence (P08684 whole entry): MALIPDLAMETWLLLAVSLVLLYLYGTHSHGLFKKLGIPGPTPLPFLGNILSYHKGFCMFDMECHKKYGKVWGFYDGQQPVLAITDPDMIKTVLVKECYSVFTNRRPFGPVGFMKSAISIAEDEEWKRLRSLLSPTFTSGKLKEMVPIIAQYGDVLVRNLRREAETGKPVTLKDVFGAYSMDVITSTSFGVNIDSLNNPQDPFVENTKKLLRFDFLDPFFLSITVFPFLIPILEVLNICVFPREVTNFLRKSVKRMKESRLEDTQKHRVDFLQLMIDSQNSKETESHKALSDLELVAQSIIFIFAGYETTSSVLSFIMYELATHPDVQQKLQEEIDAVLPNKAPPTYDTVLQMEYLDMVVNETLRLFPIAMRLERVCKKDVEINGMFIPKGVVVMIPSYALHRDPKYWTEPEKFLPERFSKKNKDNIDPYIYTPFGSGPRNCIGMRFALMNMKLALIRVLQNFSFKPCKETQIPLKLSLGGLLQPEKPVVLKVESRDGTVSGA
Protocol: as §1

CYP2D6 mRNA = CYP2D6 mRNA expression in Hep G2 cells (real-time PCR); format: cell-based, human; conditions: 12 h
Protocol: The logarithmic growth phase Hep G2 cells were seeded into 12-well plastic plates at a density of […]. After incubation at 37 °C under 5% CO2 for 24 h, the media were then replaced with 1 mL of serial dilutions of the DPTM (4.98, 0.16 and 0.08 mM) in fresh media. When cells were incubated for 2, 4 and 12 h at 37 °C under 5% CO2, the RNA was isolated using the Trizol reagent according to the manufacturer’s protocol. Total RNA (5 μL) was transcribed into cDNA by using the PrimeScript RT reagent Kit (Perfect Real Time). The obtained cDNA (5 μL) was added for 45 cycles of PCR amplification to detect the mRNA expression (the primers and sequences used herein were given in Table 3) using the ABI Villa TM7Dx real-time PCR system (Gaithersburg, USA). Glyceraldehyde-3-phosphate dehydrogenase (GAPDH) was used as reference gene. All reactions were performed in a final volume of 20 μL (10 μL of 2 × SYBR Green Real-time PCR Master Mix, 2 μL of cDNA and 2 μL of the primers and 6 μL DEPC water) and executed in triplicate.

S. typhimurium TA1535 = conditions: − S9
From the text: (§2) S. typhimurium strains TA97, TA98, TA100, TA102 and TA1535 were stored and maintained as provided in the standard protocol. Each of the strains was checked for their genetic integrity prior to the experiment, and tested for biotin dependence, histidine dependence, biotin and histidine dependence, rfa marker (crystal violet) and presence of the plasmid pKM101 (ampicillin resistance) or pAQ1 (tetracycline resistance). Different strains were used to identify different types of mutations.
(§3) The test was carried out at five different concentrations of DPTM. […] Then 1 mL solution was diluted with distilled water by two fold. […] The negative control used in this experiment was 1 mL DMSO which was directly incorporated into 9 mL melted top agar.
(§4) The Ames test of DPTM was conducted as described in the literatures[42],[43] with some modifications. Briefly, 1 mL of strain was inoculated into 5 mL of nutrient broth, followed by incubating overnight at 37 °C. The mixture comprised respective strains, drug, negative and positive controls with the S9 for testing in the presence of metabolic activation system. For testing without S9, 1 × phosphate buffer saline (PBS, pH 7.4) replaced the S9 mix. The obtained mixtures were added into the tube, mixed well and incubated at 37 °C for 20 min. Then, the top agar was melted and 2 mL of this melted top agar was added to each tube and gently mixed. […] The results were expressed as the number of revertant colonies per plate. The experiments were performed in triplicate.

[1] = tested on: S. typhimurium strains TA97, TA98, TA100, TA102 and TA1535; assay: Ames test, overall verdict over five strains; format: cell-based, Salmonella typhimurium; conditions: with or without S9, up to 3.98 μmol/plate
From the text: as §2, §3
as §4, with “min.” for “min. Then, the top agar was melted and 2 mL of this melted top agar was added to each tube and gently mixed.”, “The experiments were performed in triplicate.” left out

**Q.** How did the IC50 (CYP2D1) turn out when C=CC1(C)CC(OC(=O)CSc2nc(N)cc(N)n2)C2(C)C(C)CCC3(CCC(=O)C32)C(C)C1O (stereo not drawn) [DPTM, 14-O-[(4,6-Diaminopyrimidine-2-yl)thioacetyl] mutilin] was run?
**A.** The IC50 was > 100 µM.

**Q.** What about the IC50 (CYP3A4) of the same molecule?
**A.** Its IC50 is 8 ± 2 µM.

**Q.** And the “CYP2D6 mRNA expression versus control” value (CYP2D6 mRNA)?
**A.** Its value is “significantly lowered”.

**Q.** What about the “revertant colonies per plate, TA1535” value (S. typhimurium TA1535; dose 0.25 μmol/plate) of the same molecule?
**A.** Its value is 22 ± 3 CFU.

**Q.** What about the “revertant colonies per plate, TA1535” value (S. typhimurium TA1535; dose 0.50 μmol/plate) of the same molecule?
**A.** Its value is 21 ± 5 CFU.

**Q.** What about the “revertant colonies per plate, TA1535” value (S. typhimurium TA1535; dose 1.00 μmol/plate) of the same molecule?
**A.** Its value is 26 ± 1 CFU.

**Q.** And the “revertant colonies per plate, TA1535” value (S. typhimurium TA1535; dose 1.99 μmol/plate)?
**A.** The value was 22 ± 3 CFU.

**Q.** What about the “revertant colonies per plate, TA1535” value (S. typhimurium TA1535; dose 3.98 μmol/plate) of the same molecule?
**A.** Its value is 22 ± 4 CFU.

**Q.** What about the “mutagenicity verdict (Ames test)” value [1] of the same molecule?
**A.** The value was “should not be considered as a mutagen”.
